Results as given in US20160057994A1, “Aplatelet Clays for Sustained Release of Active Ingredients” (BioGuard Research and Development, Inc., priority 2013, published 2016).

Experiments:
[1] = Accelerated flow-device release test of extruded/spun fibers; assay type: physicochemical; details: trifluralin/nanoclay/polypropylene fiber material, water with 0.01% Tween 20, ca. 23° C.
Protocol: For extrusion and spinning of fibers, the trifluralin-loaded nanoclay is prepared from batches containing 3500 grams of trifluralin and 5476 grams of the nanoclay by the method described in Example 1. The particle size requirement is that the sample pass through a #60 U.S. Sieve (<250 microns). The loading of the trifuralin/nanoclay/polypropylene fiber material in a polyester matrix that is adjusted to provide between 4 and 8% TFN (w/w) for the first fiber run, and 3% TFN (w/w) for the second test run. Pelletized PP material is used for the extrusion and spinning of fibers.
These samples are placed in a flow device that exposed the sample to water that contains 0.01% Tween 20. It is operated at room temperature (ca. 23° C.). These conditions are used as an accelerated test in which 24 hours represents 2 or 3 years of exposure in the environment. This correlation is based on the slope of Arrenhius plots over a temperature range of 10° C. to 50° C. similar systems. During the first few hours, the release rate is high, usually over 100 μg/cm^2/day. The test is continued until the release rate reaches the steady state.

[2] = Accelerated flow-device release test of injection molded sheets; assay type: physicochemical
Protocol: Injection molded samples (Table 3) were prepared using a Model 45 MINI-JECTOR (Mini-Jector Machinery Corp., Newbury, Ohio). The mold to be used produces test sheets that were 7.5×5 cm and 1 mm thick. The polyethylene used was powdered Quantum Microthene (XU594, 35 mesh). The polymer was mixed with the aplatelet clay or aplatelet nanoclay to provide a final ratio of 2 parts trifluralin to 20 parts polymer (24 gm load for each injection). For the PE, the injector is set up to melt the mixture at 127° C., with the injection nozzle heated to 138° C. Polypropylene is melted and injected at 163° C.
These sheets were washed in 90% MeOH to remove surface TFN contamination and placed into a flow device that exposes the sample to water that contains 0.01% Tween 20 and 0.5% MeOH. The system is operated at room temperature (ca. 23° C.). These conditions are used as an accelerated test in which 24 hours represents 2-3 years of exposure in the environment. During the first few hours, the release rate is high, usually over 100 μg/cm^2/day.

In the case of `CCCN(CCC)c1c([N+](=O)[O-])cc(C(F)(F)F)cc1[N+](=O)[O-]` [trifluralin, Trifluralin], the “release rate during the first few hours” value [1] is reported as “over 100 μg/cm^2/day”, the “release rate during the first few hours” value ([2]; injection molded polymer sheets with trifluralin-loaded aplatelet clay or nanoclay, water with 0.01% Tween 20 and 0.5% MeOH, ca. 23° C., first few hours) is reported as “over 100 μg/cm^2/day” and the “rate of trifluralin release from polypropylene relative to standard polyethylene” value ([2]; polypropylene matrix versus standard polyethylene) is reported as no less than 2%.
